Source: patent US7205326B2, “Aniline derivatives, their manufacture and use as pharmaceutical agents” (Hoffmann-La Roche Inc., priority 2003, dated 2007)
pIC50: −log10 of the molar value.

Columns and labels:
[1] = system: HCT116 cells; test: HCT116 cell proliferation MTT assay; type: cell-based; settings: HCT-116; HCT116 human colon carcinoma cells, MTT assay after 5 days (120 h) incubation, compound 3 uM to 0.15 nM
Method: HCT116 cells (human colon carcinoma cell line) were cultivated in RPMI 1640, 2.5% FCS, 2 mM Glutamine, 100 u/ml Penicillin, 100 ug/ml Streptomycin. For the assay the cells were seeded in 384 well plates, 1000 cells per well, in the same medium
The next day compounds (dissolved 10 mM in DMSO) were added in various concentrations ranging from 3 uM to 0.15 nM. After 5 days the MTT assay was done mainly according to the instructions of the manufacturer (Cell proliferation kit I, MTT, from Roche Molecular Biochemicals). In brief: MTT labeling reagent was added to a final concentration of 0.5 mg/ml, added and incubated for 4 hrs at 37° C., 5% CO2. During this incubation time purple formazan crystals are formed. After addition of the solubilization solution (20% SDS in 0.02 M HCl) the plates were incubated overnight at 37° C., 5% CO2. After careful mixing plates were measured in Victor 2 (scanning multiwell spectrophotometer, Wallac) at 550 nm.
A decrease in number of living cells results in a decrease in the total metabolic activity in the sample. The decrease directly correlates to the amount of purple color resulting from the solubilization of the purple formazan crystals.
Materials: • HCT116 1000 cells in 60 ul per well of 384 well plate (Greiner) • Medium: RPMI 1640, 2.5% FCS, glutamine, pen/strep. • Incubate 1 day at 37° C.
Induction: • Dilution of compound in DMSO: 3 ul 10 mM+27 ul DMSO, dilute 1:3 • Add 2 ul of compound dilution row to 95 ul of medium • Add 10 ul of compound dilution to 60 ul medium in test plate results in 0.3% DMSO per well • Incubate 120 h (5 days) at 37° C., 5% CO2
Analysis: • Add 7 ul MTT ([…]), incubate 4 h at 37° C. • Add 30 ul lysis buffer (20% SDS, 0.04N HCl) per well • Incubate overnight at 37° C.
Measurement: • Victor 2 (scanning multiwell spectrophotometer, Wallac), at 550 nm • Determination of IC50 was done using XL-fit.

Structure (SMILES) | melting point [°C] | pIC50 [1]
FC(F)(F)Oc1ccc(C=Cc2nc(CNc3ccc(CCCCn4ccnn4)cc3)co2)cc1 [Example 1, [4-(4-[1,2,3]Triazol-1-yl-butyl)-phenyl]-{2-[2-(4-trifluoromethoxy-phenyl)-vinyl]-oxazol-4-ylmethyl}-amine] | 103 to 105 | > 7.70
CN(Cc1coc(C=Cc2ccc(C(F)(F)F)cc2)n1)c1ccc(CCCCn2ccnn2)cc1 [Example 3, Methyl-[4-(4-[1,2,3]triazol-1-yl-butyl)-phenyl]-{2-[2-(4-trifluoromethyl-phenyl)-vinyl]-oxazol-4-ylmethyl}-amine] | 112 to 114 | > 7.70
FC(F)Oc1ccc(C=Cc2nc(CNc3ccc(CCCCn4ccnn4)cc3)co2)cc1 [Example 4, {2-[2-(4-Difluoromethoxy-phenyl)-vinyl]-oxazol-4-ylmethyl}-[4-(4-[1,2,3]triazol-1-yl-butyl)-phenyl]-amine] | 101 to 102 | < 7.40
FC(F)(F)Sc1ccc(C=Cc2nc(CNc3ccc(CCCCn4ccnn4)cc3)co2)cc1 [Example 8, [4-(4-[1,2,3]Triazol-1-yl-butyl)-phenyl]-{2-[2-(4-trifluoromethylsulfanyl-phenyl)-vinyl]-oxazol-4-ylmethyl}-amine] | 76 to 78 | > 7.70
FC(F)(F)c1ccc(C=Cc2nc(CNc3ccc(OCCCn4ccnn4)cc3)co2)cc1 [Example 9, [4-(3-[1,2,3]Triazol-1-yl-propoxy)-phenyl]-{2-[2-(4-trifluoromethyl-phenyl)-vinyl]-oxazol-4-ylmethyl}-amine] | 134 to 136 | > 7.70
CN(Cc1coc(C=Cc2ccc(SC(F)(F)F)cc2)n1)c1ccc(CCCCn2ccnn2)cc1 [Example 14, Methyl-[4-(4-[1,2,3]triazol-1-yl-butyl)-phenyl]-{2-[2-(4-trifluoromethylsulfanyl-phenyl)-vinyl]-oxazol-4-ylmethyl}-amine] |  | > 7.70
CN(Cc1coc(C=Cc2ccc(Cl)cc2)n1)c1ccc(CCCCn2ccnn2)cc1 [Example 15, {2-[2-(4-Chloro-phenyl)-vinyl]-oxazol-4-ylmethyl}-methyl-[4-(4-[1,2,3]triazol-1-yl-butyl)-phenyl]-amine] |  | < 7.40
FC(F)(F)Oc1ccc(C=Cc2nc(CNc3ccc(OCCCn4ccnn4)cc3)co2)cc1 [Example 16, [4-(3-[1,2,3]Triazol-1-yl-propoxy)-phenyl]-{2-[2-(4-trifluoromethoxy-phenyl)-vinyl]-oxazol-4-ylmethyl}-amine] |  | < 7.40
FC(F)(F)Sc1ccc(C=Cc2nc(CNc3ccc(OCCCn4ccnn4)cc3)co2)cc1 [Example 17, [4-(3-[1,2,3]Triazol-1-yl-propoxy)-phenyl]-{2-[2-(4-trifluoromethylsulfanyl-phenyl)-vinyl]-oxazol-4-ylmethyl}-amine] |  | < 7.40
Clc1ccc(C=Cc2nc(CNc3ccc(OCCCn4ccnn4)cc3)co2)cc1 [Example 18, {2-[2-(4-Chloro-phenyl)-vinyl]-oxazol-4-ylmethyl}-[4-(3-[1,2,3]triazol-1-yl-propoxy)-phenyl]-amine] |  | < 7.40
CN(C(=O)c1coc(C=Cc2ccc(OC(F)(F)F)cc2)n1)c1ccc(OCCCn2ccnn2)cc1 [Example 23, 2-[2-(4-Trifluoromethoxy-phenyl)-vinyl]-oxazole-4-carboxylic acid methyl-[4-(3-[1,2,3]triazol-1-yl-propoxy)-phenyl]-amide] |  | < 7.40
FC(F)(F)Oc1ccc(C=Cc2nc(CNc3ccc(COCCn4ccnn4)cc3)co2)cc1 [Example 36, [4-(2-[1,2,3]Triazol-1-yl-ethoxymethyl)-phenyl]-{2-[2-(4-trifluoromethoxy-phenyl)-vinyl]-oxazol-4-ylmethyl}-amine] |  | > 7.70
FC(F)(F)c1ccc(C=Cc2nc(CNc3ccc(COCCn4ccnn4)cc3)co2)cc1 [Example 37, [4-(2-[1,2,3]Triazol-1-yl-ethoxymethyl)-phenyl]-{2-[2-(4-trifluoromethyl-phenyl)-vinyl]-oxazol-4-ylmethyl}-amine] |  | 7.40 to 7.70

Continued, values first:

melting point [°C] | pIC50 [1] | Structure (SMILES)
113 to 115 | > 7.70 | FC(F)(F)c1ccc(C=Cc2nc(CNc3ccc(CCCCn4ccnn4)cc3)co2)cc1 [Example 2, [4-(4-[1,2,3]Triazol-1-yl-butyl)-phenyl]-{2-[2-(4-trifluoromethyl-phenyl)-vinyl]-oxazol-4-ylmethyl}-amine]
120 to 122 | > 7.70 | Clc1ccc(C=Cc2nc(CNc3ccc(CCCCn4ccnn4)cc3)co2)cc1 [Example 5, {2-[2-(4-Chloro-phenyl)-vinyl]-oxazol-4-ylmethyl}-[4-(4-[1,2,3]triazol-1-yl-butyl)-phenyl]-amine]
130 to 131 | < 7.40 | C(=Cc1nc(CNc2ccc(CCCCn3ccnn3)cc2)co1)c1ccc2c(c1)OCO2 [Example 6, [2-(2-Benzo[1,3]dioxol-5-yl-vinyl)-oxazol-4-ylmethyl]-[4-(4-[1,2,3]triazol-1-yl-butyl)-phenyl]-amine]
102 to 104 | < 7.40 | FC1(F)Oc2ccc(C=Cc3nc(CNc4ccc(CCCCn5ccnn5)cc4)co3)cc2O1 [Example 7, {2-[2-(2,2-Difluoro-benzo[1,3]dioxol-5-yl)-vinyl]-oxazol-4-ylmethyl}-[4-(4-[1,2,3]triazol-1-yl-butyl)-phenyl]-amine]
 | < 7.40 | CN(Cc1coc(C=Cc2ccc3c(c2)OCO3)n1)c1ccc(CCCCn2ccnn2)cc1 [Example 13, [2-(2-Benzo[1,3]dioxol-5-yl-vinyl)-oxazol-4-ylmethyl]-methyl-[4-(4-[1,2,3]triazol-1-yl-butyl)-phenyl]-amine]
 | < 7.40 | O=C(Nc1ccc(OCCCn2ccnn2)cc1)c1coc(C=Cc2ccc(C(F)(F)F)cc2)n1 [Example 19, 2-[2-(4-Trifluoromethyl-phenyl)-vinyl]-oxazole-4-carboxylic acid [4-(3-[1,2,3]triazol-1-yl-propoxy)-phenyl]-amide]
 | < 7.40 | O=C(Nc1ccc(OCCCn2ccnn2)cc1)c1coc(C=Cc2ccc(OC(F)(F)F)cc2)n1 [Example 20, 2-[2-(4-Trifluoromethoxy-phenyl)-vinyl]-oxazole-4-carboxylic acid [4-(3-[1,2,3]triazol-1-yl-propoxy)-phenyl]-amide]
 | < 7.40 | O=C(Nc1ccc(CCCCn2ccnn2)cc1)c1coc(C=Cc2ccc(OC(F)(F)F)cc2)n1 [Example 21, 2-[2-(4-Trifluoromethoxy-phenyl)-vinyl]-oxazole-4-carboxylic acid [4-(4-[1,2,3]triazol-1-yl-butyl)-phenyl]-amide]
 | < 7.40 | CN(C(=O)c1coc(C=Cc2ccc(OC(F)(F)F)cc2)n1)c1ccc(CCCCn2ccnn2)cc1 [Example 22, 2-[2-(4-Trifluoromethoxy-phenyl)-vinyl]-oxazole-4-carboxylic acid methyl-[4-(4-[1,2,3]triazol-1-yl-butyl)-phenyl]-amide]
 | < 7.40 | FC(F)(F)c1cccc(C=Cc2nc(CNc3ccc(CCCCn4ccnn4)cc3)co2)c1 [Example 26, [4-(4-[1,2,3]Triazol-1-yl-butyl)-phenyl]-{2-[2-(3-trifluoromethyl-phenyl)-vinyl]-oxazol-4-ylmethyl}-amine]
 | > 7.70 | O=C(Nc1ccc(CCCCn2ccnn2)cc1)c1coc(C=Cc2ccc3c(c2)OC(F)(F)O3)n1 [Example 29, 2-[2-(2,2-Difluoro-benzo [1,3]dioxol-5-yl)-vinyl]-oxazole-4-carboxylic acid [4-(4-[1,2,3]triazol-1-yl-butyl)-phenyl]-amide]
 | > 7.70 | O=C(Nc1ccc(CCCCn2ccnn2)cc1)c1coc(C=Cc2ccc(OC(F)F)cc2)n1 [Example 31, 2-[2-(4-Difluoromethoxy-phenyl)-vinyl]-oxazole-4-carboxylic acid-[4-(4-[1,2,3]triazol-1-yl-butyl)-phenyl]-amide]
 | < 7.40 | CN(C(=O)c1coc(C=Cc2ccc(OC(F)F)cc2)n1)c1ccc(CCCCn2ccnn2)cc1 [Example 32, 2-[2-(4-Difluoromethoxy-phenyl)-vinyl]-oxazole-4-carboxylic acid methyl-[4-(4-[1,2,3]-triazol-1-yl-butyl)-phenyl]-amide]
 | > 7.70 | Fc1ccc(C=Cc2nc(CNc3ccc(CCCCn4ccnn4)cc3)co2)c(F)c1 [Example 34, {2-[2-(2,4-Difluoro-phenyl)-vinyl]-oxazol-4-ylmethyl}-[4-(4-[1,2,3]triazol-1-yl-butyl)-phenyl]-amine]
 | < 7.40 | Fc1cc(Cl)ccc1C=Cc1nc(CNc2ccc(CCCCn3ccnn3)cc2)co1 [Example 35, {2-[2-(4-Chloro-2-fluoro-phenyl)-vinyl]-oxazol-4-ylmethyl}-[4-(4-[1,2,3]triazol-1-yl-butyl)-phenyl]-amine]
